Literature values in US8187629B2, “Non-lamellar compositions of DOPE and P80” (Camurus AB, priority 2004, dated 2012).

Settings: room temperature; greater at physiological temperature

CCCCCCCC/C=C\CCCCCCCC(=O)OCC(O)CO (stereo not shown) [GMO, glycerol monooleate]
equilibrium water solubility: at least 10^−7 M
